Measured values: article PMC7956567, “Aqueous Solubility of Organic Compounds for Flow Battery Applications: Symmetry and Counter Ion Design to Avoid Low-Solubility Polymorphs” (Molecules, 2021)
≈ marks a conversion by molar mass, not a printed value. Where “and” joins values, the source holds several entries; their conditions need not be identical. Equal entries are not always repeated. Structures can show the parent of a compound that is named as a salt.

Assays:
[1] = Solubility by NMR method with imidazole as internal standard; assay type: physicochemical
Description: (§1) Figure 3 illustrates the two methods used to determine solubility. The first method was gravimetry which required a higher amount of analyte to reduce any error arising from possible co-crystalized compounds. This method is easy to realize without the need for high-tech equipment, and its result is also a reference for the other method performed by NMR spectroscopy. The NMR method required only a small quantity of the analyte and was more accurate as no co-crystalized compounds were counted in its homogeneous solution phase.
The NMR spectra used to determine the solubility were recorded with a known amount of imidazole as the internal standard.
^1H NMR spectra were recorded in DMSO-d6 or CDCl3 solution at room temperature, on a Varian Unity Inova 500 spectrometer (Bruker Corp. Oxford, UK) (500 and 125 MHz for ^1H NMR and APT-NMR spectra, respectively), with the residual solvent signal as the lock and imidazole as the internal standard (only for solubility determination). Chemical shifts (δ) and coupling constants (J) are given in ppm and Hz, respectively.

[2] = parameters: method as in doi:10.1149/1945-7111/ab7550; conditions: water; disodium salts; cited from earlier work
[3] = Solubility by gravimetry; assay type: physicochemical; conditions: aqueous buffer, thermodynamic from solid, 1 M sulfuric acid, first isolated polymorph
Description: as §1

[4] = 1 M acid, counter ion PO3 3− (phosphate), aqueous buffer, thermodynamic from solid, 1 M acid, counter ion PO3 3− [sic] (phosphate), read-out: Solubility in 1 M acid, PO3 3−
[5] = 1 M sulfuric acid, aqueous buffer, thermodynamic from solid, 1 M sulfuric acid, counter ion SO4 2−, final (more stable) polymorph, read-out: Solubility in 1 M acid, SO4 2−

## 2,3-dimethyl-5-[(morpholin-4-yl)methyl]benzene-1,4-diol [MMHQ]
[1]; 1 M acid, counter ion ClO4−
  Solubility in 1 M acid, ClO4−: 20 mM
[1]; 1 M acid, counter ion Cl−, NMR method, validated by gravimetric analysis
  Solubility in 1 M acid, Cl−: 0.07 ^1 M
[1]; 1 M acid, counter ion PO3 3− [sic] (phosphate)
  Solubility in 1 M acid, PO3 3−: 0.48 M
[1]; 1 M sulfuric acid, counter ion SO4 2−, final (more stable) polymorph
  Solubility in 1 M acid, SO4 2−: 480 mM

## O=C1c2cccc(S(=O)(=O)[O-])c2C(=O)c2cccc(S(=O)(=O)[O-])c21.[Na+].[Na+] [1,5-AQDSNa2, 9,10-dioxo-9,10-dihydroanthracene-1,5-disulfonic acid disodium salt]
[2]
  Aqueous solubility: 70 mM

## O=C1c2ccc(S(=O)(=O)[O-])cc2C(=O)c2ccc(S(=O)(=O)[O-])cc21.[Na+].[Na+] [2,6-AQDSNa2, 9,10-dioxo-9,10-dihydroanthracene-2,6-disulfonic acid disodium salt, reference compound]
[1]; water, disodium salt, NMR method with imidazole as internal standard, read-out: Aqueous solubility
  solubility: 40 mM
[2]
  Aqueous solubility: below 0.1 M

## O=C1c2ccc(S(=O)(=O)O)cc2C(=O)c2cc(S(=O)(=O)O)ccc21 [2,7-AQDS disodium salt, 9,10-dioxo-9,10-dihydroanthracene-2,7-disulfonic acid]
[2]
  Aqueous solubility: 580 mM and 740 mM

## Oc1cc(CN2CCOCC2)c(O)cc1CN1CCOCC1 [DMHQ, 2,5-bis[(morpholin-4-yl)methyl]benzene-1,4-diol]
[1]; 1 M acid, counter ion ClO4−, aqueous buffer, thermodynamic from solid, 1 M acid, counter ion ClO4−, read-out: Solubility in 1 M acid, ClO4−
  solubility: 10 mM (≈ 3.08 mg/mL)
[1]; 1 M acid, counter ion Cl−, thermodynamic from solid, 1 M acid, counter ion Cl−, NMR method, validated by gravimetric analysis, read-out: Solubility in 1 M acid, Cl−
  solubility: 30 mM (≈ 9.25 mg/mL)
[1]; [4]
  solubility: 530 mM (≈ 163 mg/mL)
[1]; [5]
  solubility: 80 mM (≈ 24.7 mg/mL)
[1]; 1 M sulfuric acid, one year later, new polymorph, method not given, read-out: Solubility in 1 M sulfuric acid one year later
  solubility: < 100 mM
[3]
  solubility: 1700 mM (≈ 524 mg/mL)

## Cc1c(O)c(C)c(CN2CCOCC2)c(O)c1CN1CCOCC1 [asym-DDHQ, 2,6-dimethyl-3,5-bis[(morpholin-4-yl)methyl]benzene-1,4-diol]
[1]; [4]
  solubility: 550 mM (≈ 185 mg/mL)
[1]; [5]
  solubility: 440 mM (≈ 148 mg/mL)

## Cc1c(O)c(CN2CCOCC2)c(C)c(O)c1CN1CCOCC1 [sym-DDHQ, 2,5-dimethyl-3,6-bis[(morpholin-4-yl)methyl]benzene-1,4-diol]
[1]; [4]
  solubility: 400 mM (≈ 135 mg/mL)
[1]; [5]
  solubility: 60 mM (≈ 20.2 mg/mL)
[1]; 1 M sulfuric acid, aqueous buffer, thermodynamic from solid, 1 M sulfuric acid, freshly obtained product, first polymorph, NMR method, read-out: Solubility of first polymorph in 1 M sulfuric acid
  solubility: 240 mM (≈ 80.7 mg/mL)
